This passage reports solubility and solubility in water results from patent US8951340B2, “Water-insoluble coloring matter compound, ink using the water-insoluble coloring matter compound, thermal transfer recording sheet and resist composition for color filter” (Canon Kabushiki Kaisha, priority 2011, dated 2015).

Data set [1] can be described thus: Evaluation of solubility of compound for solvent (30 mg in 0.7 mL, visually observed). The class given is physicochemical. The note with it: organic solvent or mixture, thermodynamic from solid, room temperature, visual. Here is the method:
30 mg of each of water-insoluble coloring matter compounds (1), (4), (6), (8) to (10), (14), (15), (20), and (21) and comparative compounds (1) to (3) was dissolved at room temperature in 0.7 mL of toluene, 0.7 mL of methanol, 0.7 mL of ethyl acetate, and 0.7 mL of chloroform, respectively. These solutions were visually observed, and the solubility of the compound for the solvent was evaluated.
A: completely dissolved (solubility is very good)
B: slightly suspended (solubility is good)
C: not dissolved at all (solubility is bad)

A short description of data set [2]: Solubility in water of the compound at room temperature and at 60° C. The format is physicochemical. The note with it: mass percentage. From the text:
The water-insoluble coloring matter compound represented by the formula (1) according to the present invention has high affinity for an organic solvent. In the present invention, “water-insoluble” means that solubility in water is less than 1% in terms of mass percentage.

The mark [3] stands for this setting: 30 mg in 0.7 mL chloroform, read-out: Solubility Chloroform.
Where [4] appears, read: 30 mg in 0.7 mL ethyl acetate, read-out: Solubility Ethyl acetate.
Setting [5] is: 30 mg in 0.7 mL methanol, read-out: Solubility Methanol.
Where [6] appears, read: 30 mg in 0.7 mL toluene, read-out: Solubility Toluene.

Where two headings read alike, the source gives them in different places.

Consider `Cn1c(=O)cc2c3c(c(Nc4ccccc4)ccc31)C(=O)c1ccccc1-2` [(1)], for which the solubility in data set [1] (setting [3]), in data set [1] (setting [4]), in data set [1] (setting [5]) and in data set [1] (setting [6]) was less than 42.9 mg/mL each time.

With `Cc1ccc(Nc2ccc3c4c(cc(=O)n3C)-c3ccccc3C(=O)c24)cc1` [(2)], the solubility in data set [1] (setting [3]), in data set [1] (setting [4]), in data set [1] (setting [5]) and in data set [1] (setting [6]) was less than 42.9 mg/mL each time.

As to `CCCCn1c(=O)c(C(=O)c2ccccc2)c2c3c(c(Nc4ccc(C)cc4)ccc31)C(=O)c1ccccc1-2` [(3)], the solubility in data set [1] (setting [3]), in data set [1] (setting [4]), in data set [1] (setting [5]) and in data set [1] (setting [6]) was less than 42.9 mg/mL in each case.

`CCCCC(CC)CNc1ccc2c3c1C(=O)c1ccccc1-c3c(C(C)=O)c(=O)n2CCCC` (stereo not drawn) [Compound (1)]: the solubility in water entry in data set [2] (60° C.) and in data set [2] (room temperature) was “less than 1%” throughout.

On to `CCCCC(CC)CNc1ccc2c3c1C(=O)c1ccccc1-c3c(C(=O)c1ccccc1)c(=O)n2CCCC` (stereo not drawn) [Compound (4)], for which the solubility in water entry in data set [2] (60° C.) and in data set [2] (room temperature) was “less than 1%” throughout.

Regarding `CCCCC(CC)CNc1ccc2c3c1C(=O)c1ccccc1-c3c(C(=O)c1ccc(OC)cc1)c(=O)n2CCCC` (stereo not drawn) [Compound (6)], the solubility in water entry in data set [2] (60° C.) and in data set [2] (room temperature) was “less than 1%” in each case.

For the molecule `CCCCC(CC)CNc1ccc2c3c1C(=O)c1ccccc1-c3c(C(=O)c1ccccc1)c(=O)n2CC(CC)CCCC` (stereo not drawn) [Compound (8)], the solubility in water result in data set [2] (60° C.) and in data set [2] (room temperature) was “less than 1%” throughout.

As to `CCCCC(CC)CNc1ccc2c3c1C(=O)c1ccccc1-c3c(C(=O)OCC)c(=O)n2CC(CC)CCCC` (stereo not drawn) [Compound (9)], the solubility in water entry in data set [2] (60° C.) and in data set [2] (room temperature) was “less than 1%” each time.

`CCCCOCCCNc1ccc2c3c1C(=O)c1ccccc1-c3c(C(=O)c1ccccc1)c(=O)n2CC(CC)CCCC` (stereo not drawn) [Compound (10)]: the solubility in water entry in data set [2] (60° C.) and in data set [2] (room temperature) was “less than 1%” each time.

As for `CCCCC(CC)CNc1ccc2c3c1C(=O)c1ccccc1-c3c(C(=O)c1ccccc1)c(=O)n2C` (stereo not drawn) [Compound (14)], the solubility in water entry in data set [2] (60° C.) and in data set [2] (room temperature) was “less than 1%” in each case.

`CCCCC(CC)Cn1c(=O)c(C(=O)c2ccccc2)c2c3c(c(NC4CCCCC4)ccc31)C(=O)c1ccccc1-2` (stereo not drawn) [Compound (15)]: the solubility in water entry in data set [2] (60° C.) and in data set [2] (room temperature) was “less than 1%” throughout.

Regarding `CCCCNc1ccc2c3c1C(=O)c1ccccc1-c3c(C(=O)c1ccccc1)c(=O)n2CCCC` [Compound (21)], the solubility in water result in data set [2] (60° C.) and in data set [2] (room temperature) was “less than 1%” throughout.

One may read the solubility as how much of the substance goes into solution per volume.
